Measurements published in ChEMBL document CHEMBL3826977, “Discovery and Structural Characterization of G-quadruplex DNA in Human Acetyl-CoA Carboxylase Gene Promoters: Its Role in Transcriptional Regulation and as a Therapeutic Target for Human Disease” (J Med Chem, 2016).
Activity calls are given as the source filed them. No cut-off for these calls is given here.

Columns and labels:
[1] = Binding affinity to human ACC1 promoter1 G-quadraduplex DNA
[2] = Binding affinity to human ACC1 promoter2 G-quadraduplex DNA
Homo sapiens [3] = species on record: Homo sapiens; test: Binding affinity to human ACC1 promoter2 G-quadraduplex DNA assessed as hyperchromic shift at 5 uM by UV-vis absorption spectroscopy
Homo sapiens [4] = species on record: Homo sapiens; test: Binding affinity to human ACC1 promoter2 G-quadraduplex DNA assessed as bathochromic red shift at 5 uM by UV-vis absorption spectroscopy
Homo sapiens [5] = species on record: Homo sapiens; test: Binding affinity to human ACC1 promoter2 G-quadraduplex DNA assessed as apparent isosbestic point at 5 uM by UV-vis absorption spectroscopy
Homo sapiens [6] = species on record: Homo sapiens; test: Binding affinity to human ACC1 promoter1 G-quadraduplex DNA at 5 uM by UV-vis absorption spectroscopy
Homo sapiens [7] = species on record: Homo sapiens; test: Binding affinity to human ACC1 promoter1 G-quadraduplex DNA assessed as decrease in fluorescence emission intensity by fluorescence emission spectroscopy
Homo sapiens [8] = species on record: Homo sapiens; test: Binding affinity to human ACC1 promoter2 G-quadraduplex DNA assessed as decrease in fluorescence emission intensity by fluorescence emission spectroscopy
Homo sapiens [9] = species on record: Homo sapiens; test: Binding affinity to human ACC1 promoter1 G-quadraduplex DNA assessed as inhibition of Taq-polymerase catalyzed primer extension preincubated for 1 hr followed by addition of Taq-polymerase measured after 30 mins by Taq-polymerase stop assay
Homo sapiens [10] = species on record: Homo sapiens; test: Binding affinity to human ACC1 promoter1 G-quadraduplex DNA mutant assessed as inhibition of Taq-polymerase catalyzed primer extension preincubated for 1 hr followed by addition of Taq-polymerase measured after 30 mins by Taq-polymerase stop assay
Homo sapiens [11] = species on record: Homo sapiens; test: Binding affinity to human ACC1 promoter2 G-quadraduplex DNA assessed as inhibition of Taq-polymerase catalyzed primer extension preincubated for 1 hr followed by addition of Taq-polymerase measured after 30 mins in presence of KCl by Taq-polymerase stop assay
Homo sapiens [12] = species on record: Homo sapiens; test: Binding affinity to human ACC1 promoter2 G-quadraduplex DNA mutant assessed as inhibition of Taq-polymerase catalyzed primer extension preincubated for 1 hr followed by addition of Taq-polymerase measured after 30 mins in presence of KCl by Taq-polymerase stop assay
HeLa [13] = test: Binding affinity to human wild type ACC1 promoter1 G-quadraduplex DNA transfected in human HeLa cells assessed as suppression of ACC1 gene expression after 24 hrs by dual luciferase reporter assay; format: cell-based
HeLa [14] = test: Binding affinity to human wild type ACC1 promoter2 G-quadraduplex DNA transfected in human HeLa cells assessed as suppression of ACC1 gene expression after 24 hrs by dual luciferase reporter assay; format: cell-based
HeLa [15] = test: Binding affinity to human wild type ACC1 promoter1 G-quadraduplex DNA transfected in human HeLa cells assessed as suppression of ACC1 gene expression at 0.1 to 25 uM after 24 hrs by dual luciferase reporter assay relative to control; format: cell-based
HeLa [16] = test: Binding affinity to human wild type ACC1 promoter2 G-quadraduplex DNA transfected in human HeLa cells assessed as suppression of ACC1 gene expression at 0.1 to 25 uM after 24 hrs by dual luciferase reporter assay relative to control; format: cell-based
HeLa [17] = test: Binding affinity to human ACC1 promoter G-quadraduplex DNA transfected in human HeLa cells assessed as suppression of ACC1 gene expression after 24 hrs by qRT-PCR method; format: cell-based
HeLa [18] = test: Effect on GAPDH gene expression in human HeLa cells at 5 to 20 uM after 24 hrs by qRT-PCR method; format: ADME, cell-based

Q: For `C[n+]1ccc(-c2c3nc(c(-c4cc[n+](C)cc4)c4ccc([nH]4)c(-c4cc[n+](C)cc4)c4nc(c(-c5cc[n+](C)cc5)c5ccc2[nH]5)C=C4)C=C3)cc1`, which Kd [1] is on record?
A: 70 nM

Q: And the Kd [2]?
A: 70 nM

Q: With `C[n+]1ccc(-c2c3nc(c(-c4cc[n+](C)cc4)c4ccc([nH]4)c(-c4cc[n+](C)cc4)c4ccc([nH]4)c(-c4cc[n+](C)cc4)c4nc2C=C4)C=C3)cc1` as the compound, how does the Activity (Homo sapiens [3]) read?
A: Active

Q: And the Activity (Homo sapiens [4])?
A: 18 nm

Q: What about the Activity (Homo sapiens [5]) of the same compound?
A: 432 nm

Q: What about the Activity (Homo sapiens [6]) of the same compound?
A: Active

Q: And the Activity (Homo sapiens [7])?
A: Active

Q: What about the Activity (Homo sapiens [8]) of the same compound?
A: Active

Q: What about the inhibition (Homo sapiens [9]) of the same compound?
A: Dose-dependent effect

Q: And the inhibition (Homo sapiens [10])?
A: inactive

Q: And the inhibition (Homo sapiens [11])?
A: Dose-dependent effect

Q: What about the inhibition (Homo sapiens [12]) of the same compound?
A: Active

Q: What about the inhibition (HeLa [13]) of the same compound?
A: Dose-dependent effect

Q: And the inhibition (HeLa [14])?
A: Dose-dependent effect

Q: What about the inhibition (HeLa [15]) of the same compound?
A: 67%

Q: And the inhibition (HeLa [16])?
A: 84%

Q: For `c1cc2c(cc1-c1nc3cc(N4CCOCC4)ccc3[nH]1)c1cc(-c3nc4cc(N5CCOCC5)ccc4[nH]3)ccc1n2CCCCN1CCOCC1`, which inhibition (HeLa [17]) is on record?
A: Dose-dependent effect

Q: And the Activity (HeLa [18])?
A: Non-toxic
